PubChem BioAssay (NCI)
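Cultured in 96-well plates, cells were exposed to test compound for 48 hours across five concentrations. Definition used: TGI = concentration required for complete inhibition of growth.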

Experiments:
Assay in all cases: NCI anticancer screen, dose series, 48 h
786-0 renal = tested on: 786-0 renal
CCRF-CEM leukemia = tested on: CCRF-CEM leukemia
COLO 205 colon = tested on: COLO 205 colon
KM12 colon = tested on: KM12 colon
LOX IMVI melanoma = tested on: LOX IMVI melanoma
OVCAR-4 ovarian = tested on: OVCAR-4 ovarian
SF-295 CNS = tested on: SF-295 CNS
SNB-75 CNS = tested on: SNB-75 CNS
T-47D breast = tested on: T-47D breast
HS 578T breast = tested on: HS 578T breast
MDA-N = tested on: MDA-N

SMILES | TGI (786-0 renal) [µM] | TGI (CCRF-CEM leukemia) [µM] | TGI (COLO 205 colon) [µM] | TGI (KM12 colon) [µM] | TGI (LOX IMVI melanoma) [µM] | TGI (OVCAR-4 ovarian) [µM] | TGI (SF-295 CNS) [µM] | TGI (SNB-75 CNS) [µM] | TGI (T-47D breast) [µM] | TGI (HS 578T breast) [µM] | TGI (MDA-N) [µM]
O=c1c2[nH]cnc2n(-c2ccccc2)c(=S)n1-c1ccccc1 | > 100 | > 100 | > 100 | > 100 | > 100 | > 100 | > 100 | > 100 | > 100 |  | 
C=CCOC(C)(C)C1=CCC(C)CC1 (centres undefined) | > 100 |  | > 100 | > 100 |  | > 100 | > 100 | > 100 |  | > 100 | > 100
[C-]#[O+].[Cl][Sn]([Cl])[Cl].[Cl][Sn]([Cl])[Cl].[Pt].c1cnc2c(c1)ccc1cccnc12 |  | > 29.8 | > 100 | > 100 | 15.8 | > 27.4 | > 36.5 | 61.6 |  |  | 
Cc1ccc(S(=O)(=O)OCCN(CCOS(=O)(=O)c2ccc(C)cc2)c2ccc(C=O)cc2)cc1 |  | > 100 | > 100 | 53 | > 100 | 44.3 | > 100 |  | > 100 | > 100 | 
COc1cc(C2c3cc4c(cc3[C@@H](Nc3ccc(F)cc3)C3COC[C@H]23)OCO4)cc(OC)c1O (some centres undefined) | 6.35 | 8.45 | > 25 | > 25 |  | > 25 | 5.32 | 17 | > 25 | 4.21 | > 25
Cc1cccc2c1nc1n2C(=O)c2ccccc2-1 | > 100 | > 100 | > 100 | > 100 |  | > 100 | > 100 | > 100 |  |  | > 100
COc1cc(C=O)cc(C=Nc2ccc(Br)cc2)c1O |  | 27.7 | 36.3 | > 100 | 29.8 | > 100 | 21.1 | > 100 | > 100 | 5.26 | 35.7
COC(=O)c1c(O)ccc2c1c1c(n2Cc2ccc(OC)cc2)C(=O)c2ccccc2C1 | > 100 | 89.4 | 34.4 | > 100 | > 100 | > 100 | > 100 | > 100 |  | > 100 | > 100
COc1cc2c(cc1O)NC(=O)[C@@H]1C[C@@H](O)CN1C2=O | > 100 | > 100 | > 100 | > 100 | > 100 | > 100 | > 100 | > 100 | > 100 | > 100 | 
O=C(N/N=C/c1ccccc1)c1c(F)c(F)c(F)c(F)c1F |  | > 100 | > 100 | > 100 | > 100 | > 100 | > 100 | > 100 | > 100 | > 100 | > 100
BrC1(c2ccccc2)C[n+]2c(-c3ccccc3)cc(-c3ccccc3)cc2-c2ccccc21 (centres undefined) | 13.4 | 21.2 | 0.318 | 1.34 | 1.82 | 28 | 5.68 | 0.621 |  | 0.872 | 1.69
CCOC(=O)C(Cc1ccc(N=NN(C)C)cc1)NC(=O)CC1c2ccccc2-c2ccccc21 (centres undefined) | > 100 | > 100 | > 100 | > 100 | > 100 | > 100 | > 100 | > 100 |  |  | 
C/C(=N/NC(=S)Nc1ccc(C)cc1)c1ccccn1 | 12.7 | 4.64 | 1.95 | 15.5 | 20.8 | 17.2 | 11.8 | 17.2 |  | 17 | 13.8
COc1ccc(C(=CCC(C)C2CCC3[C@@H]4C(OC(C)=O)CC5CC(OC(C)=O)CC[C@]5(C)C4CC(OC(C)=O)[C@]23C)c2ccc(OC)cc2)cc1 (some centres undefined) | > 100 | > 100 | > 100 | > 100 |  | > 100 | > 100 | > 100 | > 100 | > 100 | 
CC(=O)c1c(-c2ccc(Cl)cc2)c(C#N)c(=S)n(C2OC(CO)C(O)C(O)C2O)c1C (centres undefined) | > 100 | 63.7 | 95.1 | > 100 | > 100 | > 100 | > 100 | > 100 | > 100 |  | 86.8
CC(=O)O[C@H]1CC[C@@H](OC(C)=O)[C@H]2[C@H](O)[C@H](O)[C@@H]1n1c(=O)n(-c3ccccc3)c(=O)n12 | > 100 | > 100 | > 100 | > 100 | > 100 | > 100 | > 100 |  | > 100 | > 100 | > 100
O=[N+]([O-])/C=C/c1cc(Cl)c(/C=C/[N+](=O)[O-])cc1Cl |  | > 100 | 4.5 | > 24.6 | 2.99 |  | 25 | 29.6 | 6.38 | 8.25 | 8.19
COc1ccc(O[C@H](CO)C[C@@H]2COC(C)(C)O2)cc1 | > 100 | > 100 | > 100 | > 100 | > 100 | > 100 | > 100 | > 100 |  |  | > 100
O=C(O)C1CCC(=O)N1C(=O)COc1cc(Cl)c(Cl)cc1Cl (centres undefined) |  |  | > 100 | > 100 | > 100 | > 100 | > 100 | > 100 |  |  | 
Cc1cc(-c2ccc(N=Nc3ccc4c(S(=O)(=O)O)cc(S(=O)(=O)O)c(N)c4c3O)c(C)c2)ccc1N=Nc1ccc2c(S(=O)(=O)O)cc(S(=O)(=O)O)c(N)c2c1O |  | > 100 | > 100 | > 100 | > 100 | > 100 | > 100 | > 100 |  |  | 
NC1CCC2(O)c3ccccc3C2C1 (centres undefined) | > 100 | > 100 | > 100 | > 100 | > 100 | > 100 | > 100 | > 100 |  |  | 
CCc1c(O)nc(Nc2nc3ccccc3[nH]2)[nH]c1=O | > 100 | > 100 | > 100 |  | > 100 | > 100 | > 100 | > 100 |  | > 100 | > 100
CC(=O)C1(C(=O)C(=[N+]=[N-])S(=O)(=O)c2ccccc2)CC1 | > 100 | > 100 | > 100 | > 100 | > 100 |  | > 100 | > 100 |  | > 100 | > 100
